Positions of bridges follow the written chain, without caps; N, C: chain ends. Residues, ends and D or L forms follow the SMILES beside them. Some results are limits rather than exact numbers.

For seven compounds, IC50 results are on record in patent publication US20260306644A1, “ANTIBODY RECRUITING MOLECULES FOR THE TREATMENT OF CORONAVIRUS DISEASE-19” (priority 2023, published 2026).

For one assay, the target named is T1, SARS-CoV-2 Spike A (wild-type) (Severe acute respiratory syndrome coronavirus 2, UniProt P0DTC2).
T1 construct: purchased Meso Scale Diagnostics, LLC V-PLEX SARS-CoV-2 Panel 13 (ACE2) Kit / Panel 23 (ACE2) Kit
Kind of assay: MSD ACE2 competition assay (inhibition of Spike binding with ACE2, ECL), A (wild-type). The conditions noted are these: IC50 Wild Type, Wild Type Spike.
Usually IC50 stands for the point on the concentration scale where inhibition reaches its midpoint. With `CC[C@H](C)[C@H](NC(C)=O)C(=O)N[C@@H](CC(C)C)C(=O)N[C@@H](CCC(N)=O)C(=O)N[C@@H](CCCCN)C(=O)N[C@H](C(=O)N[C@@H](Cc1ccc(O)cc1)C(=O)N[C@@H](CCC(=O)O)C(=O)N[C@H](C(=O)N[C@@H](CCSC)C(=O)N[C@@H](CCCNC(=N)N)C(=O)N[C@@H](CC(C)C)C(=O)N[C@@H](CC(C)C)C(=O)N[C@@H](CC(=O)O)C(=O)N[C@@H](CCC(=O)O)C(=O)N[C@@H](CC(C)C)C(=O)NCC(=O)N[C@@H](Cc1c[nH]cn1)C(=O)N[C@@H](C)C(=O)N[C@@H](CCC(=O)O)C(=O)N[C@@H](C)C(=O)N[C@@H](CO)C(=O)N[C@@H](CCSC)C(=O)N[C@@H](CCCNC(=N)N)C(=O)N[C@H](C(=O)N[C@@H](CO)C(=O)N[C@@H](CC(=O)O)C(=O)N[C@@H](CC(C)C)C(=O)N[C@H](C(=O)N[C@@H](Cc1ccc(O)cc1)C(=O)N[C@@H](CCC(=O)O)C(=O)N[C@@H](Cc1ccccc1)C(=O)N[C@@H](CCSC)C(=O)N[C@@H](CCCCN)C(=O)N[C@@H](CCCCN)C(=O)NCC(=O)NCCOCCOCCOCCOCCOCCOCCOCCOCCC(=O)NCCOCCOCCOCCOCCOCCOCCOCCOCCC(=O)N[C@@H](CC(=O)O)C(=O)N[C@H]1CSSC[C@@H](C(=O)N[C@H](C(N)=O)[C@@H](C)O)NC(=O)[C@H](Cc2c[nH]c3ccccc23)NC(=O)[C@H](C(C)C)NC(=O)[C@H](CC(C)C)NC(=O)[C@H](CCC(=O)O)NC(=O)CNC(=O)[C@H](CC(C)C)NC(=O)[C@H](Cc2c[nH]cn2)NC(=O)[C@H](Cc2c[nH]c3ccccc23)NC(=O)[C@H](C)NC1=O)[C@@H](C)CC)C(C)C)[C@@H](C)CC)[C@@H](C)CC` [Compound 155], the IC50 was determined as 7.67 nM. `CC[C@H](C)[C@H](NC(=O)[C@H](CC(C)C)NC(=O)[C@H](CC(=O)O)NC(=O)[C@H](CO)NC(=O)[C@@H](NC(=O)[C@H](CCCNC(=N)N)NC(=O)[C@H](CCSC)NC(=O)[C@@H]1CSSC[C@H](NC(=O)[C@H](CC(C)C)NC(=O)[C@H](CCCNC(=N)N)NC(=O)[C@H](CCSC)NC(=O)[C@@H](NC(=O)[C@H](CCC(=O)O)NC(=O)[C@H](Cc2ccc(O)cc2)NC(=O)[C@@H](NC(=O)[C@H](CCCCN)NC(=O)[C@@H](N)CCC(N)=O)[C@@H](C)CC)[C@@H](C)CC)C(=O)N[C@@H](CC(=O)O)C(=O)N[C@@H](CCC(=O)O)C(=O)N[C@@H](CC(C)C)C(=O)NCC(=O)N[C@@H](Cc2c[nH]cn2)C(=O)N[C@@H](C)C(=O)N[C@@H](CCC(=O)O)C(=O)N[C@@H](C)C(=O)N1)C(C)C)C(=O)N[C@@H](Cc1ccc(O)cc1)C(=O)N[C@@H](CCC(=O)O)C(=O)N[C@@H](Cc1ccccc1)C(=O)N[C@@H](CCSC)C(=O)N[C@@H](CCCCN)C(=O)N[C@@H](CCCCN)C(=O)NCC(N)=O` [Compound 177] (H-QKIYEIMRLCDELGHAEACMRVSDLIYEFMKKG-NH2; disulfide 10-19): the IC50 was > 10000 nM. Regarding `CC[C@H](C)[C@H](NC(C)=O)C(=O)N[C@@H](CC(C)C)C(=O)N[C@@H](CCC(N)=O)C(=O)N[C@@H](CCCCN)C(=O)N[C@H](C(=O)N[C@@H](Cc1ccc(O)cc1)C(=O)N[C@@H](CCC(=O)O)C(=O)N[C@H](C(=O)N[C@@H](CCSC)C(=O)N[C@@H](CCCNC(=N)N)C(=O)N[C@@H](CC(C)C)C(=O)N[C@H]1CSSC[C@@H](C(=O)N[C@@H](CCSC)C(=O)N[C@@H](CCCNC(=N)N)C(=O)N[C@H](C(=O)N[C@@H](CO)C(=O)N[C@@H](CC(=O)O)C(=O)N[C@@H](CC(C)C)C(=O)N[C@H](C(=O)N[C@@H](Cc2ccc(O)cc2)C(=O)N[C@@H](CCC(=O)O)C(=O)N[C@@H](Cc2ccccc2)C(=O)N[C@@H](CCSC)C(=O)N[C@@H](CCCCN)C(=O)N[C@@H](CCCCN)C(=O)NCC(N)=O)[C@@H](C)CC)C(C)C)NC(=O)[C@H](C)NC(=O)[C@H](CCC(=O)O)NC(=O)[C@H](C)NC(=O)[C@H](Cc2c[nH]cn2)NC(=O)CNC(=O)[C@H](CC(C)C)NC(=O)[C@H](CCC(=O)O)NC(=O)[C@H](CC(=O)O)NC1=O)[C@@H](C)CC)[C@@H](C)CC` [Compound 180] (Ac-ILQKIYEIMRLCDELGHAEACMRVSDLIYEFMKKG-NH2; disulfide 12-21), the IC50 was found to be 137 nM. `CC[C@H](C)[C@H](NC(=O)[C@H](CC(C)C)NC(=O)[C@H](CC(=O)O)NC(=O)[C@H](CO)NC(=O)[C@@H](NC(=O)[C@H](CCCNC(=N)N)NC(=O)[C@H](CCSC)NC(=O)[C@H](CO)NC(=O)[C@H](C)NC(=O)[C@H](CCC(=O)O)NC(=O)[C@H](C)NC(=O)[C@H](Cc1c[nH]cn1)NC(=O)CNC(=O)[C@H](CC(C)C)NC(=O)[C@H](CCC(=O)O)NC(=O)[C@H](CC(=O)O)NC(=O)[C@H](CC(C)C)NC(=O)[C@H](CC(C)C)NC(=O)[C@H](CCCNC(=N)N)NC(=O)[C@H](CCSC)NC(=O)[C@@H](NC(=O)[C@H](CCC(=O)O)NC(=O)[C@H](Cc1ccc(O)cc1)NC(=O)[C@@H](NC(=O)[C@H](CCCCN)NC(=O)[C@H](CCC(N)=O)NC(=O)[C@H](CC(C)C)NC(=O)[C@@H](NC(=O)[C@H](Cc1c[nH]c2ccccc12)NC(=O)[C@H](CCC(=O)O)NC(=O)[C@H](CCCCN)NC(=O)[C@@H](N)CC(=O)O)[C@@H](C)CC)[C@@H](C)CC)[C@@H](C)CC)C(C)C)C(=O)N[C@@H](Cc1ccc(O)cc1)C(=O)N[C@@H](CCC(=O)O)C(=O)N[C@@H](Cc1ccccc1)C(=O)N[C@@H](CCSC)C(=O)N[C@@H](CCCCN)C(=O)N[C@@H](CCCCN)C(=O)NCC(=O)O` [Compound 102] had a 50% inhibitory concentration (IC50) of 5.96 nM. The compound `CC[C@H](C)[C@H](NC(=O)[C@H](CC(C)C)NC(=O)[C@H](CC(=O)O)NC(=O)[C@H](CO)NC(=O)[C@@H]1CSSC[C@H](NC(=O)[C@@H](NC(=O)[C@H](CCC(=O)O)NC(=O)[C@H](Cc2ccc(O)cc2)NC(=O)[C@@H](NC(=O)[C@H](CCCCN)NC(=O)[C@H](CCC(N)=O)NC(=O)[C@H](CC(C)C)NC(=O)[C@@H](NC(=O)[C@H](Cc2c[nH]c3ccccc23)NC(=O)[C@H](CCC(=O)O)NC(=O)[C@H](CCCCN)NC(=O)[C@H](CC(=O)O)NC(C)=O)[C@@H](C)CC)[C@@H](C)CC)[C@@H](C)CC)C(=O)N[C@@H](CCCNC(=N)N)C(=O)N[C@@H](CC(C)C)C(=O)N[C@@H](CC(C)C)C(=O)N[C@@H](CC(=O)O)C(=O)N[C@@H](CCC(=O)O)C(=O)N[C@@H](CC(C)C)C(=O)NCC(=O)N[C@@H](Cc2cnc[nH]2)C(=O)N[C@@H](C)C(=O)N[C@@H](CCC(=O)O)C(=O)N[C@@H](C)C(=O)N[C@@H](CO)C(=O)N[C@@H](CCSC)C(=O)N[C@@H](CCCNC(=N)N)C(=O)N1)C(=O)N[C@@H](Cc1ccc(O)cc1)C(=O)N[C@@H](CCC(=O)O)C(=O)N[C@@H](Cc1ccccc1)C(=O)N[C@@H](CCSC)C(=O)N[C@@H](CCCCN)C(=O)N[C@@H](CCCCN)C(=O)NCC(=O)O` [Compound 137] (Ac-DKEWILQKIYEICRLLDELGHAEASMRCSDLIYEFMKKG-OH; disulfide 13-28) displayed an IC50 of 2.91 nM.

For `CC[C@H](C)[C@H](NC(=O)[C@H](CC(C)C)NC(=O)[C@H](CC(=O)O)NC(=O)[C@H](CO)NC(=O)[C@@H]1CSSC[C@H](NC(=O)[C@@H](NC(=O)[C@H](CCC(=O)O)NC(=O)[C@H](Cc2ccc(O)cc2)NC(=O)[C@@H](NC(=O)[C@H](CCCCN)NC(=O)[C@H](CCC(N)=O)NC(=O)[C@H](CC(C)C)NC(=O)[C@@H](NC(=O)[C@H](Cc2c[nH]c3ccccc23)NC(=O)[C@H](CCC(=O)O)NC(=O)[C@H](CCCCN)NC(=O)[C@@H](N)CC(=O)O)[C@@H](C)CC)[C@@H](C)CC)[C@@H](C)CC)C(=O)N[C@@H](CCCNC(=N)N)C(=O)N[C@@H](CC(C)C)C(=O)N[C@@H](CC(C)C)C(=O)N[C@@H](CC(=O)O)C(=O)N[C@@H](CCC(=O)O)C(=O)N[C@@H](CC(C)C)C(=O)NCC(=O)N[C@@H](Cc2cnc[nH]2)C(=O)N[C@@H](C)C(=O)N[C@@H](CCC(=O)O)C(=O)N[C@@H](C)C(=O)N[C@@H](CO)C(=O)N[C@@H](CCSC)C(=O)N[C@@H](CCCNC(=N)N)C(=O)N1)C(=O)N[C@@H](Cc1ccc(O)cc1)C(=O)N[C@@H](CCC(=O)O)C(=O)N[C@@H](Cc1ccccc1)C(=O)N[C@@H](CCSC)C(=O)N[C@@H](CCCCN)C(=O)N[C@@H](CCCCN)C(=O)NCC(=O)O` [Compound 136] (H-DKEWILQKIYEICRLLDELGHAEASMRCSDLIYEFMKKG-OH; disulfide 13-28), the IC50 stood at 2.53 nM.

Staying with this assay, now noted: read-out: IC50, Wild Type, Wild Type.
Take `CC[C@H](C)[C@H](NC(=O)[C@H](CC(C)C)NC(=O)[C@H](CC(=O)O)NC(=O)[C@H](CO)NC(=O)[C@@H](NC(=O)[C@H](CCCNC(=N)N)NC(=O)[C@H](CCSC)NC(=O)[C@@H]1CSSC[C@H](NC(=O)[C@H](CC(C)C)NC(=O)[C@H](CCCNC(=N)N)NC(=O)[C@H](CCSC)NC(=O)[C@@H](NC(=O)[C@H](CCC(=O)O)NC(=O)[C@H](Cc2ccc(O)cc2)NC(=O)[C@@H](NC(=O)[C@H](CCCCN)NC(=O)[C@H](CCC(N)=O)NC(=O)[C@H](CC(C)C)NC(=O)[C@@H](NC(=O)[C@H](Cc2c[nH]c3ccccc23)NC(=O)[C@H](CCC(=O)O)NC(=O)[C@H](CCCCN)NC(=O)[C@H](CC(=O)O)NC(=O)[C@H](CO)NC(C)=O)[C@@H](C)CC)[C@@H](C)CC)[C@@H](C)CC)C(=O)N[C@@H](CC(=O)O)C(=O)N[C@@H](CCC(=O)O)C(=O)N[C@@H](CC(C)C)C(=O)NCC(=O)N[C@@H](Cc2c[nH]cn2)C(=O)N[C@@H](C)C(=O)N[C@@H](CCC(=O)O)C(=O)N[C@@H](C)C(=O)N1)C(C)C)C(=O)N[C@@H](Cc1ccc(O)cc1)C(=O)N[C@@H](CCC(=O)O)C(=O)N[C@@H](Cc1ccccc1)C(=O)N[C@@H](CCSC)C(=O)N[C@@H](CCCCN)C(=O)N[C@@H](CCCCN)C(=O)NCC(N)=O` [Compound 176]: the 50% inhibitory concentration (IC50) was determined as 5.02 nM.
